Here are results for 16 molecules from article PMC9026082, “Madecassic Acid—A New Scaffold for Highly Cytotoxic Agents” (International Journal of Molecular Sciences, 2022).

Data set [1] has as its system several human tumor cell lines (A375, HT29, MCF-7, A2780, and HeLa). As to the kind of experiment: SRB assays, cell line not given. The format is cell-based. Particulars: SRB assay, cut-off 30 μM. The text has this: To assess their cytotoxicity parent, triterpenoic acids 1–3, their acetates 4–6, the amides 7–18, as well as the respective rhodamine B conjugates 19–24 were subjected to SRB assays employing several human tumor cell lines (A375, HT29, MCF-7, A2780, and HeLa) as well as non-malignant fibroblasts (NIH 3T3). […]
(§1) 2. Cytotoxicity assay (SRB assay)
(§2) The cell lines were obtained from Department of oncology (Martin-Luther-University Halle Wittenberg). Cultures were maintained as monolayers in RPMI 1640 medium with L-glutamine (Capricorn Scientific GmbH, Ebsdorfergrund, Germany) supplemented with 10% heat inactivated fetal bovine serum (Sigma -Aldrich Chemie GmbH, Steinheim, Germany) and penicillin/streptomycin (1%, Capricorn Scientific GmbH, Ebsdorfergrund, Germany) at 37 °C in a humidified atmosphere with 5% CO 2.
(§3) The cytotoxicity of the compounds was eva luated using the sulforhodamine -B (Kiton-Red S, ABCR) micro culture colorimetric assay using […] in 96 -well plates with the seeding of the cells on day 0 applying appropriate cell densities to prevent confluence of the cells during the period of the experiment. On day 1, the cells were treated with six di fferent concentrations (1, 3, 7, 12, 20 and 30 μM); thereby, the final concentration of DMSO was always < 0.5%, generally regarded as non-toxic to the cells. On day 4, the supernatant medium was discarded; the cells were fixed with 10 % trichloroacetic acid. After another day at 4 °C, the cells were washed in a strip washer and dyed with the SRB solution (100 μL, 0.4% in 1% acetic acid) for about 20 min to be followed by washing of the plates (four times, 1% acetic acid) and air -drying […]
(§4) overnight. Furthermore, tris base solution (200 μL, 10 mM) was added to each well and absorbance was measured at λ = 570 nm employing a reader (96 wells, Tecan Spectra, Crailsheim, Germany). The EC50 values were averaged from three independent experiments performed each in triplicate calculated from semi logarithmic dose response curves applying a non-linear four-parameter Hills-slope equation (GraphPad Prism5; variables top and bottom were set to 100 and 0, respectively).

Another data set deals with A375 (melanoma). As to the kind of experiment: SRB cytotoxicity assay, A375. The data set is classed as cell-based, human. Particulars: 72 h of treatment, cut-off 30 μM.
From the text: (§5) To assess their cytotoxicity parent, triterpenoic acids 1–3, their acetates 4–6, the amides 7–18, as well as the respective rhodamine B conjugates 19–24 were subjected to SRB assays employing several human tumor cell lines (A375, HT29, MCF-7, A2780, and HeLa) as well as non-malignant fibroblasts (NIH 3T3).
(§6) A detailed description of materials and methods can be found in the Supplementary Materials File. For biological screening, the cell lines were obtained from ATCC: A375 (CRL-1619), HT29 (HTB-38), MCF7 (HTP-22), A2780 (HTP-77), HeLa (CCL-2), and NIH 3T3 (CRL-1573) ^13C NMR spectra (Supplementary Materials) were recorded as APT spectra showing CH and CH3 groups as positive signals and CH2 groups and quaternary carbons as negative signals. […]
as §1, §2, §3, §4
In general terms: The SRB assay estimates cell density from bound dye.

Data set [2] concerns HT29 (colorectal carcinoma). Briefly: SRB cytotoxicity assay, HT29. The note with it: Homo sapiens, HT-29, 72 h of treatment, cut-off 30 μM. The format is cell-based, human.
From the text: as §5, §6, §1, §2, §3, §4

Data set [3] relates to MCF7 (breast adenocarcinoma). Briefly: SRB cytotoxicity assay, MCF7. Particulars: Homo sapiens, MCF7, 72 h of treatment, cut-off 30 μM. The format is cell-based, human.
From the text: as §5, §6, §1, §2, §3, §4

Data set [4] deals with A2780 (ovarian carcinoma). Briefly: SRB cytotoxicity assay, A2780. Particulars: Homo sapiens, A2780; SRB assay, 72 h of treatment; cut-off 30 μM. The format is cell-based, human.
From the text: as §5, §6, §1, §2, §3, §4

In data set [5] the test system is NIH 3T3 (non-malignant fibroblasts). Briefly: SRB cytotoxicity assay, NIH 3T3. The data set is classed as cell-based. The note with it: Mus musculus, NIH3T3, 72 h of treatment, cut-off 30 μM.
From the text: as §5, §6, §1, §2, §3, §4

Structures can show the parent of a compound that is named as a salt.

Broadly, the melting point is the temperature, or range, at which the solid turns liquid. By EC50 is commonly meant the concentration giving half of the maximal effect.

Take `CCN(CC)c1ccc2c(-c3ccccc3C(=O)O)c3ccc(=[N+](CC)CC)cc-3oc2c1` [rhodamine B, reference compound]: the cytotoxicity entry in data set [1] is listed as “not cytotoxic”.
`CCN(CC)c1ccc2c(-c3ccccc3C(=O)N3CCN(C(=O)[C@]45CC[C@@H](C)[C@H](C)[C@H]4C4=CC[C@@H]6[C@@]7(C)C[C@@H](OC(C)=O)[C@H](OC(C)=O)[C@@](C)(COC(C)=O)[C@@H]7[C@H](O)C[C@@]6(C)[C@]4(C)CC5)CC3)c3ccc(=[N+](CC)CC)cc-3oc2c1` (as salt: chloride) [Compound 23, N-{6-Diethylamino-9-[2-({4[ (2α,3β,4α,6β)-2,3,23-tris(acetyloxy)-6-hydroxy-28-oxours-12-en-28-yl)-1-piperazinyl]carbonyl]phenyl]-3H-xanthen-3-ylidene)-N-ethylethanaminium Chloride] yielded a melting point of 228 to 233 °C.
Molecule `CC(=O)OC[C@@]1(C)[C@@H]2[C@H](O)C[C@]3(C)[C@H](CC=C4[C@@H]5[C@@H](C)[C@H](C)CC[C@]5(C(=O)N5CCCNCC5)CC[C@]43C)[C@@]2(C)C[C@@H](OC(C)=O)[C@@H]1OC(C)=O` [Compound 18, (2α,3β,4α,6β) 2,3,23-Tris(acetyloxy)-N-(homopiperazinyl)-6-hydroxyurs-12-en-28-amide] gave a melting point of 146.5 to 150.5 °C.
Molecule `CCN(CC)c1ccc2c(-c3ccccc3C(=O)N3CCCN(C(=O)[C@]45CCC(C)(C)C[C@H]4C4=CC[C@@H]6[C@@]7(C)CC[C@H](OC(C)=O)[C@@](C)(COC(C)=O)[C@@H]7CC[C@@]6(C)[C@]4(C)CC5)CC3)c3ccc(=[N+](CC)CC)cc-3oc2c1` (as salt: chloride) [Compound 22] gave a melting point of 243 to 248 °C.
On to `CC(=O)OC[C@@]1(C)[C@@H]2CC[C@]3(C)[C@H](CC=C4[C@@H]5CC(C)(C)CC[C@]5(C(=O)Nc5ccccc5)CC[C@]43C)[C@@]2(C)CC[C@@H]1OC(C)=O` [Compound 12, (3β,4α) 3,23-Bis(acetyloxy)-N-(phenyl)-olean-12-en-28-amide], for which the melting point lay in the range of 210 to 214 °C. The molecule further yielded a concentration giving a half-maximal response (EC50) in the data set on A375 (melanoma) of 600 ± 200 nM. This molecule gave an EC50 in the data set on A375 (melanoma) (Homo sapiens, A-375, 72 h) of 660 nM. The response in data set [2] was half-maximal at 1900 ± 600 nM (EC50). This molecule registered an EC50 in data set [3] of 1900 ± 100 nM. The molecule also returned an EC50 in data set [4] of 800 ± 200 nM. The molecule further showed an EC50 in data set [5] greater than 30000 nM.
`CC(=O)OC[C@@]1(C)[C@@H]2CC[C@]3(C)[C@H](CC=C4[C@@H]5CC(C)(C)CC[C@]5(C(=O)N5CCNCC5)CC[C@]43C)[C@@]2(C)CC[C@@H]1OC(C)=O` [Compound 13, (3β,4α)3,23-Bis(acetyloxy)-N-(piperazinyl)-olean-12-en-28-amide] gave a melting point of 183 to 187 °C.
The same measure, in the same setting: for `CC(=O)O[C@H]1CC[C@]2(C)[C@H]3CC=C4[C@@H]5CC(C)(C)CC[C@]5(C(=O)N5CCCNCC5)CC[C@@]4(C)[C@]3(C)CC[C@H]2[C@]1(C)C=O` [Compound 10, (3β,4α) 3-Acetyloxy-N-(homopiperazinyl)-23-oxo-olean-12-en-28-amide] the value was 176 to 179 °C.
As to `CC(=O)OC[C@@]1(C)[C@@H]2CC[C@]3(C)[C@H](CC=C4[C@@H]5CC(C)(C)CC[C@]5(C(=O)N5CCCNCC5)CC[C@]43C)[C@@]2(C)CC[C@@H]1OC(C)=O` [Compound 14, (3β,4α)3,23-Bis(acetyloxy)-N-(homopiperazinyl)-olean-12-en-28-amide], the melting point fell in the range of 176 to 180 °C.
Same read-out and setting: for `CCN(CC)c1ccc2c(-c3ccccc3C(=O)N3CCCN(C(=O)[C@]45CC[C@@H](C)[C@H](C)[C@H]4C4=CC[C@@H]6[C@@]7(C)C[C@@H](OC(C)=O)[C@H](OC(C)=O)[C@@](C)(COC(C)=O)[C@@H]7[C@H](O)C[C@@]6(C)[C@]4(C)CC5)CC3)c3ccc(=[N+](CC)CC)cc-3oc2c1` (as salt: chloride) [Compound 24, N-{6-Diethylamino-9-[2-({4[ (2α,3β,4α,6β)-2,3,23-tris(acetyloxy)-6-hydroxy-28-oxours-12-en-28-yl)-1,4-diazepan-1-yl}carbonyl]phenyl]-3H-xanthen-3-ylidene)-N-ethylethanaminium Chloride] the value was 269 to 273 °C; for `CC(=O)OC[C@@]1(C)[C@@H]2[C@H](O)C[C@]3(C)[C@H](CC=C4[C@@H]5[C@@H](C)[C@H](C)CC[C@]5(C(=O)N5CCNCC5)CC[C@]43C)[C@@]2(C)C[C@@H](OC(C)=O)[C@@H]1OC(C)=O` [Compound 17, (2α,3β,4α,6β) 2,3,23-Tris(acetyloxy)-N-(piperazinyl)-6-hydroxyurs-12-en-28-amide], 133 to 138 °C.
As to `CC(=O)O[C@H]1CC[C@]2(C)[C@H]3CC=C4[C@@H]5CC(C)(C)CC[C@]5(C(=O)NCc5ccccc5)CC[C@@]4(C)[C@]3(C)CC[C@H]2[C@]1(C)C=O` [Compound 7, (3β,4α) 3-Acetyloxy-N-(benzyl)-23-oxo-olean-12-en-28-amide], the melting point was in the range of 119 to 121 °C. Also, the midpoint of the response in the data set on A375 (melanoma) (Homo sapiens, A-375, 72 h), the EC50, lay at 3300 ± 300 nM. The EC50 in data set [2] was 10700 ± 1800 nM. This molecule had an EC50 in data set [3] of 8800 ± 1600 nM. For the same molecule, the response in data set [4] was half-maximal at 4400 ± 300 nM (EC50). In addition, in data set [5], the midpoint of the response, the EC50, lay at 18500 ± 4600 nM.
`CCN(CC)c1ccc2c(-c3ccccc3C(=O)N3CCCN(C(=O)[C@]45CCC(C)(C)C[C@H]4C4=CC[C@@H]6[C@@]7(C)CC[C@H](OC(C)=O)[C@@](C)(COC(C)=O)[C@@H]7CC[C@@]6(C)[C@]4(C)CC5)CC3)c3ccc(=[N+](CC)CC)cc-3oc2c1` [Compound 22]: the EC50 in the data set on A375 (melanoma) (Homo sapiens, A-375, 72 h) stood at 31 ± 7 nM; in data set [2] it was 83 ± 20 nM; in data set [3] it was 86 ± 10 nM; in data set [4], 18 ± 1 nM; in data set [5] it was 441 ± 120 nM.
The molecule `CC(=O)OC[C@@]1(C)[C@@H]2CC[C@]3(C)[C@H](CC=C4[C@@H]5CC(C)(C)CC[C@]5(C(=O)NCc5ccccc5)CC[C@]43C)[C@@]2(C)CC[C@@H]1OC(C)=O` [Compound 11, (3β,4α) 3,23-Bis(acetyloxy)-N-(benzyl)-olean-12-en-28-amide] registered a melting point of 210 to 214 °C. For the same molecule, the response in the data set with A375 (melanoma) (Homo sapiens, A-375, 72 h) was half-maximal at 1100 ± 600 nM (EC50). In data set [2], this molecule displayed a 50% effective concentration (EC50) of 3800 ± 700 nM. Moreover, the EC50 in data set [3] turned out to be 3400 ± 400 nM. Further, in data set [4], the EC50 worked out at 1300 ± 300 nM. The molecule also registered an EC50 in data set [5] greater than 30000 nM.
With `CC(=O)O[C@H]1CC[C@]2(C)[C@H]3CC=C4[C@@H]5CC(C)(C)CC[C@]5(C(=O)N5CCNCC5)CC[C@@]4(C)[C@]3(C)CC[C@H]2[C@]1(C)C=O` [Compound 9, (3β,4α) 3-Acetyloxy-N-(piperazinyl)-23-oxo-olean-12-en-28-amide], the melting point lay in the range of 150 to 154 °C.
For the molecule `COc1cccc2c1C(=O)c1c(O)c3c(c(O)c1C2=O)C[C@@](O)(C(=O)CO)C[C@@H]3O[C@H]1C[C@H](N)[C@H](O)[C@H](C)O1` [DX, Doxorubicin, reference compound], the EC50 in data set [2] turned out to be 900 ± 200 nM; in data set [3], 1100 ± 300 nM; in data set [4] it was 20 ± 10 nM; in data set [5], 1700 ± 300 nM.
For the molecule `CC(=O)O[C@H]1CC[C@]2(C)[C@H]3CC=C4[C@@H]5CC(C)(C)CC[C@]5(C(=O)Nc5ccccc5)CC[C@@]4(C)[C@]3(C)CC[C@H]2[C@]1(C)C=O` [Compound 8, (3β,4α) 3-Acetyloxy-N-(phenyl)-23-oxo-olean-12-en-28-amide], the melting point is 150 to 152 °C. The molecule also had an EC50 with A375 (melanoma) (Homo sapiens, A-375, 72 h) of 7900 ± 3300 nM. Moreover, in data set [2], the EC50 is greater than 30000 nM. Moreover, in data set [3], the EC50 is greater than 30000 nM. For the same molecule, the midpoint of the response in data set [4], the EC50, lay at 19900 ± 1400 nM. The molecule also came in with an EC50 in data set [5] greater than 30000 nM.
